Experimental data published in the NIST ThermoML archive (doi:10.1021/je060170c).

Assay: xn = mol fraction of the nth substance listed
Settings: 101 kPa, Liquid; for viscosity: Anton Paar Stabinger viscometer

Cc1cc(C)cc(C)c1 [1,3,5-trimethylbenzene] + COc1ccccc1
Settings	mass density [kg/m3]	speed of sound [m/s]	viscosity [mPa·s]
288.15 K, x2 = 0	869.169	1377.5	0.754
288.15 K, x2 = 0.074	876.661	1383.1	0.769
288.15 K, x2 = 0.181	887.986	1390.7	0.802
288.15 K, x2 = 0.334	905.232	1400.3	0.849
288.15 K, x2 = 0.4982	925.26	1408	0.893
288.15 K, x2 = 0.628	942.318	1420.3	0.965
288.15 K, x2 = 0.7512	959.611	1426.3	1.005
288.15 K, x2 = 0.814	968.893	1433.8	1.061
288.15 K, x2 = 0.875	978.238	1438.6	1.101
288.15 K, x2 = 0.94	988.554	1445.6	1.158
293.15 K, x2 = 0	865.072	1357	0.705
293.15 K, x2 = 0.074	872.553	1361.7	0.716
293.15 K, x2 = 0.181	883.818	1368.1	0.743
293.15 K, x2 = 0.334	900.968	1376.2	0.782
293.15 K, x2 = 0.4982	920.888	1383.3	0.819
293.15 K, x2 = 0.628	937.858	1395.1	0.883
293.15 K, x2 = 0.7512	955.065	1401.5	0.92
293.15 K, x2 = 0.814	964.301	1410	0.971
293.15 K, x2 = 0.875	973.59	1415.8	1.007
293.15 K, x2 = 0.94	983.844	1424.2	1.058
298.15 K, x2 = 0	861.062	1336.9	0.661
298.15 K, x2 = 0.074	868.529	1342.6	0.674
298.15 K, x2 = 0.181	879.758	1350.1	0.697
298.15 K, x2 = 0.334	896.835	1360	0.733
298.15 K, x2 = 0.4982	916.671	1370.5	0.767
298.15 K, x2 = 0.628	933.575	1379.4	0.827
298.15 K, x2 = 0.7512	950.712	1388.1	0.863
298.15 K, x2 = 0.814	959.91	1392.9	0.912
298.15 K, x2 = 0.875	969.162	1397.6	0.946
298.15 K, x2 = 0.94	979.363	1402.8	0.993
303.15 K, x2 = 0	856.95	1316.8	0.621
303.15 K, x2 = 0.074	864.41	1320.5	0.633
303.15 K, x2 = 0.181	875.58	1326.7	0.65
303.15 K, x2 = 0.334	892.57	1336.1	0.677
303.15 K, x2 = 0.4982	912.31	1347.1	0.706
303.15 K, x2 = 0.628	929.13	1356.2	0.758
303.15 K, x2 = 0.7512	946.19	1365.4	0.792
303.15 K, x2 = 0.814	955.34	1370.5	0.837
303.15 K, x2 = 0.875	964.55	1375.6	0.87
303.15 K, x2 = 0.94	974.7	1382.8	0.912

COc1ccccc1 [anisole] + Cc1ccc(C)cc1
Settings	mass density [kg/m3]	speed of sound [m/s]	viscosity [mPa·s]
288.15 K, x1 = 0.0822	875.328	1360.3	0.728
288.15 K, x1 = 0.187	888.441	1373.1	0.778
288.15 K, x1 = 0.31	904.181	1384.4	0.829
288.15 K, x1 = 0.47	925.057	1395.9	0.884
288.15 K, x1 = 0.637	947.54	1410.4	0.958
288.15 K, x1 = 0.747	962.692	1420.6	1.013
288.15 K, x1 = 0.822	973.119	1437	1.109
288.15 K, x1 = 0.888	982.387	1443	1.145
288.15 K, x1 = 0.949	991.051	1446.3	1.167
288.15 K, x1 = 1	998.44	1449.1	1.188
293.15 K, x1 = 0.0822	871.032	1339.5	0.674
293.15 K, x1 = 0.187	884.105	1352.5	0.717
293.15 K, x1 = 0.31	899.758	1364	0.761
293.15 K, x1 = 0.47	920.561	1375.3	0.809
293.15 K, x1 = 0.637	942.968	1389.9	0.875
293.15 K, x1 = 0.747	958.092	1400.3	0.925
293.15 K, x1 = 0.822	968.502	1416.7	1.013
293.15 K, x1 = 0.888	977.769	1422.5	1.046
293.15 K, x1 = 0.949	986.356	1425.8	1.066
293.15 K, x1 = 1	993.651	1428.5	1.084
298.15 K, x1 = 0.0822	866.765	1317.4	0.635
298.15 K, x1 = 0.187	879.807	1326.5	0.674
298.15 K, x1 = 0.31	895.413	1337.5	0.714
298.15 K, x1 = 0.47	916.177	1352.2	0.759
298.15 K, x1 = 0.637	938.559	1368.2	0.821
298.15 K, x1 = 0.747	953.665	1379.3	0.868
298.15 K, x1 = 0.822	964.094	1387.4	0.952
298.15 K, x1 = 0.888	973.344	1394.8	0.985
298.15 K, x1 = 0.949	981.943	1401.8	1.003
298.15 K, x1 = 1	989.105	1408	1.017
303.15 K, x1 = 0.0822	862.434	1296.9	0.597
303.15 K, x1 = 0.187	875.432	1306.5	0.628
303.15 K, x1 = 0.31	890.974	1317.6	0.662
303.15 K, x1 = 0.47	911.659	1332.7	0.7
303.15 K, x1 = 0.637	933.983	1349.1	0.754
303.15 K, x1 = 0.747	949.069	1360.5	0.798
303.15 K, x1 = 0.822	959.511	1368.5	0.875
303.15 K, x1 = 0.888	968.761	1375.6	0.903
303.15 K, x1 = 0.949	977.313	1382.3	0.918
303.15 K, x1 = 1	984.372	1387.7	0.931
